Results on five molecules are retold here after patent US6649609B2, “Benzimidazole derivatives and pharmaceutical compositions comprising these compounds” (Neurosearch A/S, priority 1999, dated 2003).

Molecules are shown by their SMILES. “And” between values parts separate entries of the source, which are not always exact repeats. Identical values can stand only once. Marks after values point to notes of the source that are not given here.

What is called IC50 is the point on the concentration scale where inhibition reaches its midpoint. Low readings indicate greater potency, high ones weaker potency. For orientation: melting point means the temperature, or range, at which the solid turns liquid.

In data set [1] the target is benzodiazepine receptor (GABAA receptor complex), cerebral cortex membranes. Kind of data set: In vitro inhibition of 3H-flunitrazepam (3H-FNM) binding. As to conditions: inhibition of specific 3H-FNM (1 nM) binding, rat cerebral cortex membranes. The procedure: The GABA recognition site and the benzodiazepine modulatory unit can selectively be labelled with ^3H-muscimol and ^3H-flunitrazepam, respectively.
13A: In vitro inhibition of ^3H-flunitrazepam (^3H-FNM) binding
Preparations are performed at 0-4° C. unless otherwise indicated. Cerebral cortex from male Wistar rats (150-200 g) is homogenised for 5-10 sec in 20 ml Tris-HCl (30 mM, pH 7.4) using an Ultra-Turrax homogeniser. The suspension is centrifuged at 27,000× g for 15 min and the pellet is washed three times with buffer (centrifuged at 27,000× g for 10 min). The washed pellet is homogenized in 20 ml of buffer and incubated on a water bath (37° C.) for 30 min to remove endogenous GABA and then centrifuged for 10 min at 27,000× g. The pellet is then homogenized in buffer and centrifuged for 10 min at 27,000× g. The final pellet is resuspended in 30 ml buffer and the preparation is frozen and stored at −20° C.
The membrane preparation is thawed and centrifuged at 2° C. for 10 min at 27,000× g. The pellet is washed twice with 20 ml 50 mM Tris-citrate, pH 7.1 using an Ultra-Turrax homogeniser and centrifuged for 10 min at 27,000× g. The final pellet is resuspended in 50 mM Tris-citrate, pH 7.1 (500 ml buffer per g of original tissue), and then used for binding assays. Aliquots of 0.5 ml tissue are added to 25 μl of test solution and 25 μl of ^3H-FNM (1 nM, final concentration), mixed and incubated for 40 min at 2° C., Non-specific binding is determined using Clonazepam (1 μM, final concentration). After incubation the samples are added 5 ml of ice-cold buffer and poured directly onto Whatman GFIC glass fibre filters under suction and immediately washed with 5 ml ice-cold buffer. The amount of radioactivity on the filters is determined by conventional liquid scintillation counting. Specific binding is total binding minus non-specific binding.
The test value will be given as IC50 (the concentration (μM) of the test substance which inhibits the specific binding of ^3H-FNM by 50%). [formula]
Co is specific binding in control assays, and
Cx is the specific binding in the test assay.
(The calculations assume normal mass-action kinetics).

The subject of data set [2] is GABAA receptor-ion channel complex (forebrain). Kind of data set: In vivo inhibition of 3H-FNM binding. Further details: species or system mouse. As to conditions: female NMRI mice, test substance i.v., inhibition of specific [3H]FNM binding in forebrain. The procedure: 13B: In vivo inhibition of ^3H-FNM binding
[^3H]FNM can also be used for in vivo receptor labelling studies in mouse. Accumulation of [^3H]FNM binding will occur all over the brain as GABAA receptors are widely distributed.
All test substances used are solutions prepared in 10% TWEEN 80. Groups of three female NMRI mice (25 g) are injected i.v. via the tail vein with 5.0 μCi of [3H]FNM in 0.2 ml saline. Fifteen min after injection with [^3H]FNM the test substance is administered i.v. Twenty min after injection with [^3H]FNM, mice are killed by decapitation, the forebrains rapidly excised and homogenized in 12 ml of ice-cold 50 mM Tris-citrate, pH 7.1 using an Ultra-Turrax homogenizer. Three aliquots of 1 ml are immediately filtered through GF/C glass fibre filters and washed with 2×5 ml of ice-cold buffer. The amounts of radioactivity on the filters and in 200 μl of the homogenate are determined by conventional scintillation counting. Groups of untreated mice serves as controls. To determine non-specific binding groups of mice are injected with Clonazepam (25 mg/kg) i.p. 10 min before [3H]FNM injection. Specific binding is the amount of binding in controls minus the amount of binding in Clonazepam treated mice.
The ED50 value is determined from dose response curves. […] [formula]
where Co is specific binding in controls and Cx is the specific binding in mice treated with test substance.

For data set [3], the system named is clonic convulsions induced by pentylenetetrazol (PTZ). Kind of data set: PTZ clonic convulsions. The format is in vivo. As to conditions: female NMRI mice; for ED100: i.v., dose increasing the PTZ threshold to 100 mg PTZ/kg (linear regression); for ptz threshold at 30 mg/kg: test substance 30 mg/kg i.v., PTZ infused after 5 min, vehicle threshold 37-39 mg PTZ/kg. How it is done: The purpose of this test is to show antagonism of clonic convulsions induced by pentylenetetrazol (PTZ). PTZ induces clonic convulsions in mice after i.v. infusion. Antagonism of PTZ-induced convulsions is a measure for the agonistic character of ligands for the benzodiazepine recognition site.
Female NMRI mice (Bomholdtgaard, Ry), 20 g, 6 mice in each group are administered i.v. with vehicle or test substance. After five minutes the PTZ-solution is infused intravenously at a speed of 0.7 ml/minute through a cannula placed in the tail vein. The time from initiation of the infusion to appearance of clonic convulsions is recorded.
The dose of PTZ required for inducing convulsion in each mouse is calculated as PTZ/kg body weight. Means ±sd for each experimental group of 6 mice is calculated. ED100 is calculated by linear regression expressing the dose increasing the PTZ threshold to 100 mg PTZ/kg.
The threshold of vehicle treated controls is in the range of 37-39 mg PTZ/kg. As a control in each series of experiments PTZ is infused into 6 vehicle treated mice.

The next data set has as its system pigs. Put plainly: Evaluation of efficacy: anaesthesia after bolus injection. As to conditions: pigs 25-30 kg; for Induction Time / Maintained anaesthesia / Normalising time following awakening: i.v. bolus, dose per compound as in Table 10 (0.03-3 mg/kg). It is filed as in vivo. How it is done: Aqueous solutions of the test substances (50 mg/ml isotonic glucose) were administered to pigs (25-30 kg) as bolus injections. The actual dose of each substance is included in the table below.
These observations are compiled in Table 10 below. This table also provides comparative data for compounds of the prior art (WO 98/17651).

Molecule `CCOC(=O)CN1CCN(c2cccc(-n3cnc4cc(C(=O)OCCOC)ccc43)c2)CC1` [Compound 1b, 2-Methoxyethyl 1-(3-(4-(ethoxy-carbonyl-methyl)-1-piperazinyl)-phenyl)-benzimidazole-5-carboxylate] registered an IC50 in data set [1] of 260 nM. For the same molecule, the “In vivo binding ED50” value in data set [2] is reported as 0.9 mg/kg. Besides, in data set [3], the ED100 was 1.6 mg/kg and the “ptz threshold at 30 mg/kg” value is reported as 200 mg/kg. Moreover, in the data set with pigs, the “Induction Time” value stood at 1.3 min, the Maintained anaesthesia is on record as 10^ min and the “Normalising time following awakening” value came to 15 min.

`COC(=O)c1cn(-c2cccc(-n3cnc4cc(-c5ccoc5)ccc43)c2)cn1` [Compound 7c, 5-(3-Furanyl)-1-(3-(4-methoxycarbonyl-1-imidazolyl)-phenyl)-benzimidazole] yielded a melting point of 221 to 223 °C. The same molecule displayed an IC50 in data set [1] of 0.7 nM. Moreover, the “In vivo binding ED50” value in data set [2] amounted to 0.43 mg/kg. In data set [3], the ED100 stood at 20 mg/kg and the “ptz threshold at 30 mg/kg” value was 110 mg/kg.

For `CCOC(=O)CN1CCC(c2cccc(-n3cnc4cc(-c5ccoc5)ccc43)c2)CC1` [Compound 7g, 5-(3-Furanyl)-1-(3-(1-ethoxycarbonylmethyl-4-piperidyl)-phenyl)-benzimidazole], the melting point was 114.5 to 115 °C and 114 to 115 °C. Moreover, in data set [1], the IC50 is 0.9 nM. The “In vivo binding ED50” value in data set [2] came out at 1.4 mg/kg. Besides, in data set [3], the ED100 is 1.2 mg/kg and the “ptz threshold at 30 mg/kg” value was 200 mg/kg.

Regarding `CCOC(=O)N1CCN(c2cccc(-n3cnc4cc(-c5ccoc5)ccc43)c2)CC1` [Compound 7i, 5-(3-Furanyl)-1-(3-(1-ethoxycarbonyl-4-piperazinyl)-phenyl)-benzimidazole], the melting point lay within 131 to 132 °C. In data set [1], this molecule had an IC50 of 0.8 nM. Moreover, in data set [2], the “In vivo binding ED50” value is listed as 1.8 mg/kg. In data set [3], the ED100 was determined as 2.5 mg/kg and the “ptz threshold at 30 mg/kg” value is given as 140 mg/kg.

`CC(=O)N1CCN(CCOC(=O)c2cccc(-n3cnc4cc(-c5ccoc5)ccc43)c2)CC1` [Compound 7j, 2-(1-Acetyl-4-piperazinyl)-ethyl 3-(5-(3-furanyl)-1-benzimidazolyl)-benzoate]: in data set [1], the IC50 was found to be 2.8 nM. For the same molecule, the “In vivo binding ED50” value in data set [2] is 1.9 mg/kg. Besides, in data set [3], the ED100 is on record as 13 mg/kg and the “ptz threshold at 30 mg/kg” value worked out at 170 mg/kg. Also, in the data set on pigs (bolus 3 mg/kg), the “Observation on anaesthesia (footnote to Maintained anaesthesia)” value was “^aUneasy sleep”. In the data set on pigs, the “Induction Time” value came out at 0.5 min, the Maintained anaesthesia is reported as 8^a min and the “Normalising time following awakening” value came out at 20 min.
